Source: ChEMBL document CHEMBL4145625 (J Med Chem, 2018)
Converted amounts (≈) assume the structure as drawn.

Key:
NCI-H460 [1] = assay: cells; format: functional, cell-based; conditions: Homo sapiens, NCI-H460, 96 h
Description: Cytotoxicity against human NCI-H460 cells after 96 hrs by MTT assay

NCI-H460 [2] = assay: Antitumor activity against human NCI-H460 cells xenografted in BALB/c nude mouse assessed as tumor growth inhibition at 10 mg/kg, po administered once daily after 20 days relative to control; format: functional; conditions: 480 h, read-out: TGI
Mus musculus [3] = assay: Toxicity in human NCI-H460 cells xenografted BALB/c nude mouse assessed as reduction in body weight at 10 mg/kg, po administered once daily after 20 days; format: organism-based; conditions: in vivo, 480 h
NCI-H460 [4] = assay: Antitumor activity against human NCI-H460 cells xenografted in BALB/c nude mouse assessed as tumor growth inhibition at 24 mg/kg, ip administered once daily after 20 days relative to control; format: functional; conditions: 480 h, read-out: TGI
NCI-H460 [5] = assay: Antitumor activity against human NCI-H460 cells xenografted in BALB/c nude mouse assessed as tumor growth inhibition at 24 mg/kg, ip administered once daily after 16 days relative to control; format: functional; conditions: 384 h, read-out: TGI
Mus musculus [6] = assay: Toxicity in human NCI-H460 cells xenografted BALB/c nude mouse assessed as reduction in body weight at 24 mg/kg, ip administered once daily after 20 days; format: organism-based; conditions: in vivo, 480 h
Mus musculus [7] = assay: Toxicity in human NCI-H460 cells xenografted BALB/c nude mouse assessed as reduction in body weight at 24 mg/kg, ip administered once daily after 16 days; format: organism-based; conditions: in vivo, 384 h
U-87 MG [8] = assay: Antitumor activity against Luc tagged human U87MG cells xenografted in BALB/c nude mouse glioblastoma orthotopic model assessed as tumor growth inhibition at 30 mg/kg, po administered daily for 5 days by MRI method relative to control; format: functional, U-87MG ATCC; conditions: 120 h, read-out: TGI
[9] = biological target: Phosphatidylinositol 4,5-bisphosphate 3-kinase catalytic subunit beta isoform (Homo sapiens, UniProt P42338); assay: Inhibition of PI3Kbeta (unknown origin) using PIP2 as substrate by ADP-Glo assay
Chain of Phosphatidylinositol 4,5-bisphosphate 3-kinase catalytic subunit beta isoform (P42338 whole entry, canonical isoform): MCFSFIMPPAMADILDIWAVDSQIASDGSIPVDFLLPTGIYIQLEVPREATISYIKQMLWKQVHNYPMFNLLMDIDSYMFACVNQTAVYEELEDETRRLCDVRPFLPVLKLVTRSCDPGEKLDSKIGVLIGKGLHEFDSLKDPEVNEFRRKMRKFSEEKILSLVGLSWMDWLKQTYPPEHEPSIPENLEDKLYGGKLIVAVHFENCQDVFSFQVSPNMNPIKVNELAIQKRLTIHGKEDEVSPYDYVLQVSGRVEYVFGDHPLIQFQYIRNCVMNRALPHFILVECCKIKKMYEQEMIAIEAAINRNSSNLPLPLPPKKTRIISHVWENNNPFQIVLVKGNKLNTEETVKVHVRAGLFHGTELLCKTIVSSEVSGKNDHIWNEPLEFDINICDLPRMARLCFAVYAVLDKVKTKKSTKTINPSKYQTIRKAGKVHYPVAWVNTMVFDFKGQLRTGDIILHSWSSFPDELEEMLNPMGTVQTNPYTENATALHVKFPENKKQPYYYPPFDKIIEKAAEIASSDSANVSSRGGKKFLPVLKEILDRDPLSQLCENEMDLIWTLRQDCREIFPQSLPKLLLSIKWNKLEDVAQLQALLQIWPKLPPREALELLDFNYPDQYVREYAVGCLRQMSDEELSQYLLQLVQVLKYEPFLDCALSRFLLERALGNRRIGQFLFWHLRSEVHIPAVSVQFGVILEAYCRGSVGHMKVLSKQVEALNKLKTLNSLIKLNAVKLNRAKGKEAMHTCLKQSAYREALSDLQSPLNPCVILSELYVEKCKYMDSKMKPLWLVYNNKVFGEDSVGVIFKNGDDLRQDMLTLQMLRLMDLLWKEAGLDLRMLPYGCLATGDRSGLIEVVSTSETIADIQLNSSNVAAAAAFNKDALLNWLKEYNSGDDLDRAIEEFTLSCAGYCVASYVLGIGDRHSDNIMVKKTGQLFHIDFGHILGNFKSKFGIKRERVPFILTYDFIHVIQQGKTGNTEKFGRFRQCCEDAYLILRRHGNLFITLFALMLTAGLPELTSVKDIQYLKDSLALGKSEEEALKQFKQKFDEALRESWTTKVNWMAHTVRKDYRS

[10] = biological target: Phosphatidylinositol 4,5-bisphosphate 3-kinase catalytic subunit gamma isoform (Homo sapiens, UniProt P48736); assay: Inhibition of PI3Kgamma (unknown origin) using PIP2 as substrate by ADP-Glo assay
Chain of Phosphatidylinositol 4,5-bisphosphate 3-kinase catalytic subunit gamma isoform (P48736 whole entry, canonical isoform): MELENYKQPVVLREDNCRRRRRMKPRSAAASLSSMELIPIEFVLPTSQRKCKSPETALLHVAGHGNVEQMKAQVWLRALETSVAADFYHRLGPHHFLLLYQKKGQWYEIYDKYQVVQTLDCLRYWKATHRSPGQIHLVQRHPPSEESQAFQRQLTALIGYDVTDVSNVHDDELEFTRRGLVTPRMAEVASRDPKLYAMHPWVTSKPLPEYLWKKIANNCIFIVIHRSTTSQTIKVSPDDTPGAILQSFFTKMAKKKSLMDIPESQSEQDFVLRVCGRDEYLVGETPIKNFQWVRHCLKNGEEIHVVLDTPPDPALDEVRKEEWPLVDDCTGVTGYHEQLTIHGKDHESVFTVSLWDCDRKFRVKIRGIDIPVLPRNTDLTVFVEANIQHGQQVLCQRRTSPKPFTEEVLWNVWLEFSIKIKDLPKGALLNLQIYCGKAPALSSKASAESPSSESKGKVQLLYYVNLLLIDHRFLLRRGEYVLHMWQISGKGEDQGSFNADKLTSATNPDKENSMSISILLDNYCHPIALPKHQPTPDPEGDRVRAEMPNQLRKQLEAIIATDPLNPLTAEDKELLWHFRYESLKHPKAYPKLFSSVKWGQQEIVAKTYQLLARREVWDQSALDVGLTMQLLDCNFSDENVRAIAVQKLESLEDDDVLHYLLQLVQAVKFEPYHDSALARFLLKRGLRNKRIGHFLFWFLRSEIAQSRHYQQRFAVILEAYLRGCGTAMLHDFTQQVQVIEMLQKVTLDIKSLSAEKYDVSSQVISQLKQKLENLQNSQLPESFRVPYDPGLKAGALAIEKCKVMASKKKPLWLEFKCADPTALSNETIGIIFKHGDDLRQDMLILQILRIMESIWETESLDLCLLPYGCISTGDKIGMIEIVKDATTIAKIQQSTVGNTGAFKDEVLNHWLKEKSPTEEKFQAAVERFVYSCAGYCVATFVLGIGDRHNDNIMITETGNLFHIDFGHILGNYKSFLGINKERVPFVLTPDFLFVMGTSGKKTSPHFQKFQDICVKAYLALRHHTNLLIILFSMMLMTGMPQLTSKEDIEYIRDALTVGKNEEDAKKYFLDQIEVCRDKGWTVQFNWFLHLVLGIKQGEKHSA

[11] = biological target: T1, Phosphatidylinositol 4,5-bisphosphate 3-kinase catalytic subunit delta isoform (Homo sapiens, UniProt O00329); assay: Inhibition of PI3Kdelta (unknown origin) using PIP2 as substrate by ADP-Glo assay
T1 sequence (O00329 whole entry): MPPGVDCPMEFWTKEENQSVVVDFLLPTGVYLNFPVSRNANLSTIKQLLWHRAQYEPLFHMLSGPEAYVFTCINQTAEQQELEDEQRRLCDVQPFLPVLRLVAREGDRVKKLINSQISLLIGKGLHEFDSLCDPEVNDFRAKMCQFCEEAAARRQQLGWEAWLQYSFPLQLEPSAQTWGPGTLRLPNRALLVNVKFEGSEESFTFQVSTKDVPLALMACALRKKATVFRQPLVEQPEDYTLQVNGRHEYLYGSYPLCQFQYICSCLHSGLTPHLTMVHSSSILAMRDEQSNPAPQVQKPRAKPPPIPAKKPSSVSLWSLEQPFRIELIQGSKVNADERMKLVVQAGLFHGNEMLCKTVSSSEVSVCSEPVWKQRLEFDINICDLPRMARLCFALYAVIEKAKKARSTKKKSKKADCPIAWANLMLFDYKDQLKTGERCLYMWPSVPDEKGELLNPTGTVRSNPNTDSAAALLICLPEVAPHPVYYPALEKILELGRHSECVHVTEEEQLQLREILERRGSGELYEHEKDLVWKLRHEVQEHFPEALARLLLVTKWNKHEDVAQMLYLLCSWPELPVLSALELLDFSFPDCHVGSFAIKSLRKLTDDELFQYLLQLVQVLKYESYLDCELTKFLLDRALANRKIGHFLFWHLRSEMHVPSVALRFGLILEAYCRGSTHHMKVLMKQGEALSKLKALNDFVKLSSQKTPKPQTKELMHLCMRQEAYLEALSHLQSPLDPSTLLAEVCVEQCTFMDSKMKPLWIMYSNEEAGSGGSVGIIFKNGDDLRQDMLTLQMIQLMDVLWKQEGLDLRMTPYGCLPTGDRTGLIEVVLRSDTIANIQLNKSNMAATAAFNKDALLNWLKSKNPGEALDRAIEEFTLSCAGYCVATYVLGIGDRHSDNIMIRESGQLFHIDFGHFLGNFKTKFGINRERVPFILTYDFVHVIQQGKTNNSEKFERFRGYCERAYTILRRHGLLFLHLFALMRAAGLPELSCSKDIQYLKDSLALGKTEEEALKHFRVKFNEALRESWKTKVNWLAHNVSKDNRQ

[12] = biological target: RAC-alpha serine/threonine-protein kinase (Homo sapiens, UniProt P31749); assay: Inhibition of AKT1 (unknown origin) using FAM-labeled peptide as substrate by mobility shift assay
Chain of RAC-alpha serine/threonine-protein kinase (P31749 whole entry): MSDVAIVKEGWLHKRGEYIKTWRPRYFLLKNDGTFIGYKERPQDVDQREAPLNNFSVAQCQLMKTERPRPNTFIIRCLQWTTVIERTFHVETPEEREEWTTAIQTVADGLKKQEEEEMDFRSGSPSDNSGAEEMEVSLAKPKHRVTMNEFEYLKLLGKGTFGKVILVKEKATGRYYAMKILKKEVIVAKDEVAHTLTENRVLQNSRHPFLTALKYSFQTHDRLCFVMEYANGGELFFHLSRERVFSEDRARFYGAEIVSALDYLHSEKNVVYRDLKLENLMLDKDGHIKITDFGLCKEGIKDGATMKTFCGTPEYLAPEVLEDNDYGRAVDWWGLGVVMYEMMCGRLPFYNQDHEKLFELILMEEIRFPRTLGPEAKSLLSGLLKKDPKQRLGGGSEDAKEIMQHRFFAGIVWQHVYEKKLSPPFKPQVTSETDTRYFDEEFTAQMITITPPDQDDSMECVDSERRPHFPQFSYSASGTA

[13] = biological target: Serine/threonine-protein kinase mTOR (Homo sapiens, UniProt P42345); assay: Inhibition of mTOR (unknown origin) using ULight-4E-BP1 peptide as substrate after 30 mins by Lance Ultra assay
A549 = assay: cells; format: functional, cell-based; conditions: Homo sapiens, A549, 96 h
Description: Cytotoxicity against human A549 cells after 96 hrs by MTT assay

MDA-MB-231 = assay: cells; format: functional, cell-based; conditions: Homo sapiens, MDA-MB-231, 96 h
Description: Cytotoxicity against human MDA-MB-231 cells after 96 hrs by MTT assay

HGC-27 [14] = assay: cells; format: functional, cell-based; conditions: Homo sapiens, HGC-27, 96 h
Description: Cytotoxicity against human HGC27 cells after 96 hrs by MTT assay

DU-145 = assay: cells; format: functional, cell-based; conditions: Homo sapiens, DU-145, 96 h
Description: Cytotoxicity against human DU145 cells after 96 hrs by MTT assay

PC-3 = assay: cells; format: functional, cell-based; conditions: Homo sapiens, PC-3, 96 h
Description: Cytotoxicity against human PC3 cells after 96 hrs by MTT assay

U-87 MG [15] = assay: cells; format: functional, cell-based, U-87MG ATCC; conditions: Homo sapiens, 96 h
Description: Cytotoxicity against human U87MG cells after 96 hrs by MTT assay

SH-SY5Y = assay: cells; format: functional, cell-based; conditions: Homo sapiens, 96 h
Description: Cytotoxicity against human SH-SY5Y cells after 96 hrs by MTT assay

U-251 = assay: cells; format: functional, cell-based; conditions: Homo sapiens, U-251, 96 h
Description: Cytotoxicity against human U251 cells after 96 hrs by MTT assay

T98G = assay: cells; format: functional, cell-based; conditions: Homo sapiens, 96 h
Description: Cytotoxicity against human T98G cells after 96 hrs by MTT assay

MGC-803 [16] = assay: Antitumor activity against human MGC803 cells xenografted in BALB/c nude mouse assessed as tumor growth inhibition at 5 mg/kg, po administered once daily for 18 days measured at post last dose relative to control; format: functional; conditions: MGC-803, po, 432 h, read-out: TGI
MGC-803 [17] = assay: Antitumor activity against human MGC803 cells xenografted in BALB/c nude mouse assessed as tumor growth inhibition at 10 mg/kg, po administered once daily for 18 days measured at post last dose relative to control; format: functional; conditions: MGC-803, po, 432 h, read-out: TGI
HGC-27 [18] = assay: Antitumor activity against human HGC27 cells xenografted in BALB/c nude mouse assessed as tumor growth inhibition at […], po administered once daily for 15 days measured at post last dose relative to control; format: functional; conditions: HGC-27, po, 360 h, read-out: TGI
Mus musculus [19] = assay: In vivo inhibition of PI3Kalpha in po dosed athymic BALB/c nude mouse xenografted with human NCI-H460 cells administered as single dose via gavage after 2 to 24 hrs; format: functional, organism-based
NCI-H460 [20] = assay: Antitumor activity against human NCI-H460 cells xenografted in po dosed athymic BALB/c nude mouse administered as single dose via gavage after 2 to 24 hrs; format: functional, organism-based
[21] = mouse, in vivo, po, 30 mg/kg
NCI-H209 [22] = conditions: Homo sapiens
Description: Antitumor activity against human NCI-H209 cells xenografted in po dosed BALB/c nude mouse assessed as tumor growth inhibition administered once daily after 19 consecutive days

MGC-803 [23] = conditions: Homo sapiens
Description: Antitumor activity against human MGC803 cells xenografted in po dosed BALB/c nude mouse assessed as tumor growth inhibition administered once daily measured at post last dose

in vivo [24] = conditions: ICR, mouse, in vivo, iv, 3 mg/kg
in vivo [25] = conditions: ICR, mouse, in vivo, po, 30 mg/kg
in vivo [26] = conditions: ICR, mouse, in vivo, iv, 3 mg/kg; remark: listed apart in the source
in vivo [27] = conditions: ICR, mouse, in vivo, po, 30 mg/kg; remark: listed apart in the source
in vivo [28] = conditions: ICR, mouse, in vivo, iv, 3 mg/kg; remark: listed apart in the source
in vivo [29] = conditions: ICR, mouse, in vivo, po, 30 mg/kg; remark: listed apart in the source
in vivo [30] = conditions: ICR, mouse, in vivo, iv, 3 mg/kg; remark: listed apart in the source
in vivo [31] = conditions: ICR, mouse, in vivo, po, 30 mg/kg; remark: listed apart in the source
in vivo [32] = conditions: ICR, mouse, in vivo, iv, 3 mg/kg; remark: listed apart in the source
Description: Half life in ICR mouse plasma at 3 mg/kg, iv by LC/MS/MS analysis

in vivo [33] = conditions: ICR, mouse, in vivo, po, 30 mg/kg; remark: listed apart in the source
Description: Half life in ICR mouse plasma at 30 mg/kg, po by LC/MS/MS analysis

in vivo [34] = conditions: ICR, mouse, in vivo, iv, 3 mg/kg; remark: listed apart in the source
Description: Volume of distribution at steady state in ICR mouse plasma at 3 mg/kg, iv by LC/MS/MS analysis

in vivo [35] = conditions: ICR, mouse, in vivo, iv, 3 mg/kg; remark: listed apart in the source
Description: Clearance in ICR mouse plasma at 3 mg/kg, iv by LC/MS/MS analysis

in vivo [36] = conditions: ICR, mouse, in vivo, po, 30 mg/kg; remark: listed apart in the source
in vivo [37] = conditions: ICR, mouse, in vivo, po, 30 mg/kg; remark: listed apart in the source
in vivo [38] = conditions: athymic BALB/c nude, mouse, in vivo, po, 10 mg/kg
in vivo [39] = conditions: ICR, mouse, po
Description: Toxicity in po dosed ICR mouse administered as single dose via oral gavage measured after 14 days

in vitro [40] = conditions: human, plasma
Description: Protein binding in human plasma at 2 uM after 6 hrs by LC-MS/MS analysis

in vitro [41] = conditions: ICR, mouse, plasma
Description: Protein binding in ICR mouse plasma at 2 uM after 6 hrs by LC-MS/MS analysis

NCI-H460 [42] = assay: animal or person; conditions: Mus musculus, NCI-H460, po, 480 h, read-out: TGI
Description: Antitumor activity against human NCI-H460 cells xenografted in BALB/c nude mouse assessed as tumor growth inhibition at 5 mg/kg, po administered once daily after 20 days relative to control

NCI-H209 [43] = assay: animal or person; conditions: Mus musculus, NCI-H209, po, read-out: TGI
NCI-H209 [44] = assay: animal or person; conditions: Mus musculus, NCI-H209, po, read-out: TGI; remark: listed apart in the source
Description: Antitumor activity against human NCI-H209 cells xenografted in BALB/c nude mouse assessed as tumor growth inhibition at 5 mg/kg, po administered once daily after 19 consecutive days relative to control

MGC-803 [45] = assay: animal or person; conditions: Mus musculus, MGC-803, po, 432 h, read-out: TGI

## COc1ccc(-c2cc3c(C)nc(N)nc3n([C@H]3CC[C@H](OCCO)CC3)c2=O)cn1 [PF-04691502]
NCI-H460 [1]
  IC50: 200 nM
NCI-H460 [2]
  inhibition in vivo at 10 mg/kg: 67.4%
Mus musculus [3]
  Activity: Toxic

## CC(=O)O[C@H]1C(=O)[C@@]2(C)[C@H]([C@H](OC(=O)c3ccccc3)[C@]3(O)C[C@H](OC(=O)[C@H](O)[C@@H](NC(=O)c4ccccc4)c4ccccc4)C(C)=C1C3(C)C)[C@]1(OC(C)=O)CO[C@@H]1C[C@@H]2O [PACLITAXEL]
NCI-H460 [4]
  inhibition in vivo at 24 mg/kg: 85.9%
NCI-H460 [5]
  inhibition in vivo at 24 mg/kg: 75.4%
Mus musculus [6]
  Activity: Toxic
Mus musculus [7]
  Activity: Toxic

## COc1ccc(CN2CCNCC2)c(OC)c1OC [TRIMETAZIDINE]
U-87 MG [8]
  inhibition in vivo at 30 mg/kg: 98.1%

## COc1ncc(-c2cc(OC3CCOCC3)c3nc(N)nc(C)c3c2)cc1NS(=O)(=O)c1ccc(F)cc1F
[9]
  IC50: 0.53 nM
[10]
  IC50: 1.3 nM
[11]
  IC50: 0.18 nM
[12]
  IC50: > 10000 nM
[13]
  IC50: 7.9 nM
A549
  IC50: 53 nM
MDA-MB-231
  IC50: 180 nM
HGC-27 [14]
  IC50: 25 nM
DU-145
  IC50: 1700 nM
PC-3
  IC50: 150 nM
U-87 MG [15]
  IC50: 120 nM
SH-SY5Y
  IC50: 280 nM
U-251
  IC50: 320 nM
T98G
  IC50: 420 nM
NCI-H460 [2]
  inhibition in vivo at 10 mg/kg: 79.8%
MGC-803 [16]
  inhibition in vivo at 5 mg/kg: 77.2%
MGC-803 [17]
  inhibition in vivo at 10 mg/kg: 77.7%
HGC-27 [18]
  inhibition in vivo at […]: 92.2%
Mus musculus [19]
  IC90: 0.00081 µg/mL (≈ 0.00145 µM)
NCI-H460 [20]
  IC50: 0.016 µg/mL (≈ 0.0287 µM)
[21]
  AUCt: 234 ng·h/g
NCI-H209 [22]
  TGI: Dose-dependent effect
MGC-803 [23]
  TGI: Dose-dependent effect
In vivo [24]
  Tmax: 1.8 min
In vivo [25]
  Tmax: 30 min
In vivo [26]
  Cmax: 10300 ng/mL
In vivo [27]
  Cmax: 4290 ng/mL
In vivo [28]
  AUC(0-t): 7190 ng·h/mL
In vivo [29]
  AUC(0-t): 23900 ng·h/mL
In vivo [30]
  AUC(0-inf): 7240 ng·h/mL
In vivo [31]
  AUC(0-inf): 36200 ng·h/mL
In vivo [32]
  half-life: 88.8 min
In vivo [33]
  half-life: 666 min
In vivo [34]
  Vd: 0.853 L/kg
In vivo [35]
  clearance: 7.58 mL/min/kg
In vivo [36]
  bioavailability: 33.2%
In vivo [37]
  Cmax: 93 ng/g
In vivo [38]
  AUC(0-t) at 24 h: 11800 ng·h/mL
In vivo [39]
  MTD at 336 h: > 40 mg/kg
In vitro [40]
  fraction unbound at 6 h, 2 µM: 0.0422
In vitro [41]
  fraction unbound at 6 h, 2 µM: 0.0823
NCI-H460 [42]
  inhibition in vivo at 5 mg/kg: 72.5%
NCI-H209 [43]
  inhibition in vivo at […]: 80.9%
NCI-H209 [44]
  inhibition in vivo at 5 mg/kg: 91.7%
MGC-803 [45]
  inhibition in vivo at […]: 68.2%
